Measurements published in patent US20130203146A1, “MICROFABRICATED SCAFFOLD STRUCTURES” (priority 2010, published 2013).

Test system: HUVECs
Assay: Cytotoxicity of [Rull(bpy)3]^2+ on HUVECs (MTT assay)
Format: cell-based, human
Experimental: FIG. 3 is a graph illustrative of the effect of [Rull(bpy)3]^2+ concentration on the viability of HUVECs. Absorbance of the MTT assay was determined at 490 nm.
HUVECs (CRL-2873™) thawed from cryopreservation was cultured in Endogro Supplement medium kit (Millipore) supplemented with 1% penicillin streptomycin. Cells were recovered from tissue culture dishes/T25 flask with 0.05% trypsin-ethylenediaminetetraacetic acid (EDTA) in PBS. The cells were routinely passaged at 1/5 confluency. All cells were incubated at 37° C. in a humidified, 5% CO2 atmosphere.

[Cl-].[Cl-].[Ru+2].c1ccc(-c2ccccn2)nc1.c1ccc(-c2ccccn2)nc1.c1ccc(-c2ccccn2)nc1 [[Rull(bpy)3]^2+, ruthenium II trisbipyridyl chloride [RuII(bpy)3]^2+]
safe range of [Rull(bpy)3]^2+ concentrations (HUVECs, MTT assay, absorbance at 490 nm): 0.5 to 3.5 mM
viability of HUVECs (higher [Rull(bpy)3]^2+ concentration than the safe range, lower absorbance at 490 nm): reduce the viability of HUVECs
